In ChEMBL document CHEMBL1201862, “PubChem BioAssay data set” (2004):
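Cultured in 96-well plates, cells were exposed to test compound for 48 hours across five concentrations. The concentration for 50% growth inhibition is given as GI50.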 Calls of active or inactive are those of the source. Rule as the data show it: active = GI50 up to about 1.1 µM and inactive = higher.

Legend:
Experiment in all cases: NCI tumour cell line growth inhibition, 48 h
M14 = tested on: M14
KM12 = tested on: KM12
SK-MEL-28 = tested on: SK-MEL-28
NCI-H23 = tested on: NCI-H23
MOLT-4 = tested on: MOLT-4
UO-31 = tested on: UO-31
SN12C = tested on: SN12C
OVCAR-3 = tested on: OVCAR-3
SK-OV-3 = tested on: SK-OV-3
SF-539 = tested on: SF-539
NCI-H460 = tested on: NCI-H460
UACC-257 = tested on: UACC-257
HT-29 = tested on: HT-29
OVCAR-4 = tested on: OVCAR-4
RXF 393 = tested on: RXF 393
HCT-15 = tested on: HCT-15
HOP-62 = tested on: HOP-62

Structure (SMILES) | GI50 (M14) | GI50 (KM12) | GI50 (SK-MEL-28) | GI50 (NCI-H23) | GI50 (MOLT-4) | GI50 (UO-31) | GI50 (SN12C) | GI50 (OVCAR-3) | GI50 (SK-OV-3) | GI50 (SF-539) | GI50 (NCI-H460) | GI50 (UACC-257) | GI50 (HT-29) | GI50 (OVCAR-4) | GI50 (RXF 393) | GI50 (HCT-15) | GI50 (HOP-62)
Cc1cccc(C)c1NC(=O)C1=NC(=S)NC(c2ccccc2)C1c1nc2ccccc2s1 (stereo unspecified) | > 100 µM (inactive) | > 100 µM (inactive) | > 100 µM (inactive) | > 100 µM (inactive) | > 100 µM (inactive) | > 100 µM (inactive) | > 100 µM (inactive) | > 100 µM (inactive) | > 100 µM (inactive) | > 100 µM (inactive) | > 100 µM (inactive) | > 100 µM (inactive) | > 100 µM (inactive) | > 100 µM (inactive) | > 100 µM (inactive) | – | –
COC(=O)C1C2CC3C(OC(=O)C31)C2OC(=O)[C@](OC)(c1ccccc1)C(F)(F)F (stereo partly specified) | > 100 µM (inactive) | > 100 µM (inactive) | > 100 µM (inactive) | > 100 µM (inactive) | > 100 µM (inactive) | > 100 µM (inactive) | > 100 µM (inactive) | > 100 µM (inactive) | > 100 µM (inactive) | > 100 µM (inactive) | > 100 µM (inactive) | > 100 µM (inactive) | > 100 µM (inactive) | > 100 µM (inactive) | > 100 µM (inactive) | > 100 µM | > 100 µM (inactive)
COc1ccc(N2C(=O)C(N3C(=O)C=CC3=O)C2C=O)cc1 (stereo unspecified) | > 100 µM (inactive) | > 100 µM (inactive) | > 100 µM (inactive) | > 100 µM (inactive) | – | > 100 µM (inactive) | > 100 µM (inactive) | > 100 µM (inactive) | > 100 µM (inactive) | > 100 µM (inactive) | > 100 µM (inactive) | > 100 µM (inactive) | > 100 µM (inactive) | – | – | > 100 µM | > 100 µM (inactive)
O=C(NC1C2CC3CC(C2)CC1C3)c1ccncn1 (stereo unspecified) | > 100 µM (inactive) | > 100 µM (inactive) | > 100 µM (inactive) | > 100 µM (inactive) | – | > 100 µM (inactive) | > 100 µM (inactive) | > 100 µM (inactive) | – | > 100 µM (inactive) | > 100 µM (inactive) | > 100 µM (inactive) | > 100 µM (inactive) | > 100 µM (inactive) | – | > 100 µM | > 100 µM (inactive)
Cc1ccc(C)c(N2C/C(=N\NC(=O)CC#N)C(c3nc4ccccc4s3)C(=O)C2=O)c1 (stereo unspecified) | > 100 µM (inactive) | > 100 µM (inactive) | > 100 µM (inactive) | > 100 µM (inactive) | > 100 µM (inactive) | > 100 µM (inactive) | > 100 µM (inactive) | > 100 µM (inactive) | > 100 µM (inactive) | – | > 100 µM (inactive) | > 100 µM (inactive) | > 100 µM (inactive) | > 100 µM (inactive) | > 100 µM (inactive) | > 100 µM | > 100 µM (inactive)
CCN(CC)CC(=O)N1CCc2c([nH]c3ccccc23)C1c1cccnc1 (stereo unspecified) | > 100 µM (inactive) | > 100 µM (inactive) | > 100 µM (inactive) | > 100 µM (inactive) | > 100 µM (inactive) | 26.9 µM (inactive) | > 100 µM (inactive) | > 100 µM (inactive) | > 100 µM (inactive) | > 100 µM (inactive) | > 100 µM (inactive) | > 100 µM (inactive) | > 100 µM (inactive) | > 100 µM (inactive) | – | > 100 µM | > 100 µM (inactive)
CC/C(C)=C1\CCC(CN2CCOCC2)C1=O (stereo unspecified) | 17.3 µM (inactive) | 24.3 µM (inactive) | 17.4 µM (inactive) | 13.8 µM (inactive) | 22.5 µM (inactive) | 21.6 µM (inactive) | 8.69 µM (inactive) | 15 µM (inactive) | – | 20.2 µM (inactive) | 17.8 µM (inactive) | 17.3 µM (inactive) | 15.6 µM (inactive) | 17.6 µM (inactive) | 6.78 µM (inactive) | 13.4 µM | 23.1 µM (inactive)
Cn1c2cccc3nnc4cccc(c4c32)n1C | > 100 µM (inactive) | > 100 µM (inactive) | > 100 µM (inactive) | – | > 100 µM (inactive) | > 100 µM (inactive) | > 100 µM (inactive) | > 100 µM (inactive) | – | > 100 µM (inactive) | > 100 µM (inactive) | > 100 µM (inactive) | > 100 µM (inactive) | > 100 µM (inactive) | > 100 µM (inactive) | > 100 µM | –
ON1CCc2c([nH]c3ccccc23)C1c1ccc(Cl)cc1 (stereo unspecified) | 42.7 µM (inactive) | 27.5 µM (inactive) | 36.4 µM (inactive) | 21.9 µM (inactive) | 21.4 µM (inactive) | 25.8 µM (inactive) | 26.1 µM (inactive) | 27.4 µM (inactive) | 46.7 µM (inactive) | 30.5 µM (inactive) | – | 30.1 µM (inactive) | 17 µM (inactive) | – | 22.1 µM (inactive) | – | 76.4 µM (inactive)
